Measurements published in patent publication US8273778B2, “Inhibitors of UDP-galactopyranose mutase thwart mycobacterial growth” (Wisconsin Alumni Research Foundation, priority 2008, dated 2012).
Like-named read-outs stand apart in the source and are kept apart here.

Key:
[1] = target: T1, UGM from Mycobacterium tuberculosis (UGMmyco) (Mycobacterium tuberculosis, UniProt P9WIQ1); assay: Fluorescence polarization binding / inhibition assay, UGMmyco
Description: (§1) Serial dilutions of dialyzed UGM (maximum concentration was typically 30 μM) was incubated with 15 nM of fluorescent compounds 5a-5f, 6 or 11 in 50 mM sodium phosphate buffer, pH 7.0 at 25° C. Final volumes were 30 μL in 384 well black microtiter plates (Costar). Fluorescence polarization was analyzed using a Wallac EnVision plate reader. Data were fit to y=m1+((m2−m1)*x^m3)/(m4^m3+x^m3); m2=maximum FP signal, m1=minimum FP signal, m3=slope, m4=binding constant (KaleidaGraph, Synergy Software).
The fluorescence polarization inhibition assay was performed as previously described (22). Reactions contained 580 nM UGMmyco or 500 nM UGMkleb and 15 nM of the fluorescent probe 5c in 50 mM sodium phosphate buffer, pH 7.0 at 25° C. Final volumes were 30 μL in 384 well black microtiter plates (Costar). Serial dilutions of UDP, 4d or 7 were added to the wells. Fluorescence polarization was analyzed using a Wallac EnVision plate reader. Data were fit to y=m1+((m2−m1)*x^m3)/(m4^m3+x^m3); m2=maximum FP signal, m1=minimum FP signal, m3=slope, m4=apparent binding constant (KaleidaGraph, Synergy Software). […]. FIGS. 13A and 13B are graphs illustrating determination of Kd for compound II for UGMmyco (FIG. 13A) and UGMkleb (FIG. 13B).

[2] = target: T2, UGM from Klebsiella pneumoniae (UGMkleb) (Klebsiella pneumoniae, UniProt Q48485); assay: Fluorescence polarization binding / inhibition assay, UGMkleb
T2 sequence (Q48485 24-384): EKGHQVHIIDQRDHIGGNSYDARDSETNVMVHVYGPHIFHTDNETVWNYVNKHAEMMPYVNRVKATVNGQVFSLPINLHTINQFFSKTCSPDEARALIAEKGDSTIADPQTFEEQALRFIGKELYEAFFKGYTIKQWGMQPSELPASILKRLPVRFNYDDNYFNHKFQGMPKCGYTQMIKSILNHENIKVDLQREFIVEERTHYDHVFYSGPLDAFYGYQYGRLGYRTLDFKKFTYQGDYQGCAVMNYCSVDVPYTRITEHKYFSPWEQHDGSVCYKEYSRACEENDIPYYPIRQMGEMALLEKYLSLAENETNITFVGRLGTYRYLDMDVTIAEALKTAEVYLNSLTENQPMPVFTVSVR
Description: as §1
The fluorescence polarization inhibition assay was performed as previously described (22). Reactions contained 580 nM UGMmyco or 500 nM UGMkleb and 15 nM of the fluorescent probe 5c in 50 mM sodium phosphate buffer, pH 7.0 at 25° C. Final volumes were 30 μL in 384 well black microtiter plates (Costar). Serial dilutions of UDP, 4d or 7 were added to the wells. Fluorescence polarization was analyzed using a Wallac EnVision plate reader. Data were fit to y=m1+((m2−m1)*x^m3)/(m4^m3+x^m3); m2=maximum FP signal, m1=minimum FP signal, m3=slope, m4=apparent binding constant (KaleidaGraph, Synergy Software). To determine Kd values, the apparent binding constant was then subjected to Kapp=Kd(1+(I)/KI), where I=concentration of the fluorescent probe and KI=binding affinity of the fluorescent probe to UGM. […] FIGS. 13A and 13B are graphs illustrating determination of Kd for compound II for UGMmyco (FIG. 13A) and UGMkleb (FIG. 13B).

UGMmyco = UGMmyco (Mycobacterium tuberculosis, UniProt P9WIQ1); assay: HPLC assay of UGMmyco conversion of UDP-galactofuranose to UDP-galactopyranose (inhibition, kinetics); type: biochemical; conditions: initial rates at various UDP-Galf, 25 or 50 μM inhibitor, 11 nM UGMmyco, pH 7
Sequence of UGMmyco (P9WIQ1 whole entry): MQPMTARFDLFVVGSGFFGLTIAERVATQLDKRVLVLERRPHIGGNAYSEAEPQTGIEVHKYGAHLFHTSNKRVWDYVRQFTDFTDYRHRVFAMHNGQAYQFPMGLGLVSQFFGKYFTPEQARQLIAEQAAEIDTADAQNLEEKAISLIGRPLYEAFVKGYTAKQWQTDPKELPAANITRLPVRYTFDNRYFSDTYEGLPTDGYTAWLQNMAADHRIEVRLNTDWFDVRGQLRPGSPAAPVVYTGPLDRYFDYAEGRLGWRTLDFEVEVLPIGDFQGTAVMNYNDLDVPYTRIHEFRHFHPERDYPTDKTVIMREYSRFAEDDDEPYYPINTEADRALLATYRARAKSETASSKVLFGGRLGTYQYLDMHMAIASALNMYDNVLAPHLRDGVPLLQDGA
Description: UGMmyco inhibition was assessed using a previously described HPLC assay to measure the extent of enzymatic conversion of UDP-galactofuranose to UDP-galactopyranose. (Carlson, E. E.; May, J. F.; Kiessling, L. L. Chem. Biol. 2006, 13, 825-837.)
The relative activity of UGMmyco in the presence of DMSO alone was compared to that in the presence of 50 μM of selected aminothiazoles. Enzymatic reaction conditions were as follows: 50 μM UDP-Galf, 4 μM UGMmyco and 20 mM DTT in 4% DMSO v/v. The mean activities of UGMmyco in the presence of the aminothiazoles are presented in order of decreasing binding affinities to highlight the relationship between enzyme inhibition and binding affinity.
The inhibition curves look similar to the binding curves depicted in FIGS. 5A and 5B. […] In the graphs of these figures, conversion is the amount of UDP-Galp formed divided by the amount of total UDP-Gal (UDP-Galp+UDP-Galf). The data were fit to the equation as previously described. (Soltero-Higgin, M.; Carlson, E. E.; Phillips, J. H.; Kiessling, L. L., Identification of inhibitors for UDP-galactopyranose mutase. J. Am. Chem. Soc. 2004, 126, 10532-10533.)
For inhibitor kinetic assays, the initial rate of UGMmyco was determined at various UDP-Galf concentrations in the presence of either DMSO alone (4% v/v), 25 μM inhibitor, or 50 μM inhibitor. […] Product formation was analyzed using a HPLC-based assay. […]

[3] = target: T1, UGM from Mycobacterium tuberculosis (UGMmyco); conditions: previous work; read-out: affinity of the probe for UGMmyco; cited from earlier work
[4] = target: T2, UGM from Klebsiella pneumoniae (UGMkleb); conditions: previous work; read-out: affinity of the probe for UGMkleb; cited from earlier work
UGM = assay: Fluorescence polarization assay, UGM homolog not specified (UGMkleb or UGMmyco); type: binding; conditions: concentrations up to 34 μM of either UGMmyco or UGMkleb
[5] = Kd (UMGmyco) [μM], Table 2, 50 mM sodium phosphate pH 7.0, 25° C.
[6] = Table 2, 50 mM sodium phosphate pH 7.0, 25° C., read-out: Kd (UMGkleb)
[7] = Table 1, UDP-fluorescein conjugates by linker length n, read-out: UGMmyco Kd
[8] = Table 2, 50 mM sodium phosphate pH 7.0, 25° C., read-out: Kd (UMGmyco)
[9] = Kd (UMGkleb) [μM], Table 2, 50 mM sodium phosphate pH 7.0, 25° C.

T1 sequence (P9WIQ1 whole entry): as above

## O=c1ccn(C2OC(COP(=O)([O-])OP(=O)(O)OCCCCCCCCNC(=S)Nc3cccc4ccccc34)C(O)C2O)c(=O)[nH]1.[Na+] (stereo not drawn) [Compound 7, UDP-octanolamine-naphthyl conjugate]
[1]; [5]
  Kd: 0.61 ± 0.109 µM
[2]; [6]
  Kd: 0.583 ± 0.036 µM

## O=C(O)C(Cc1ccc(Cl)cc1)Nc1nc(-c2ccc(Cl)cc2Cl)cs1 (stereo not drawn)
UGMmyco
  Ki: 5.3 µM

## O=C(O)c1cc(NC(=S)NCCOCCOCCOP(=O)(O)OP(=O)(O)OCC2OC(n3ccc(=O)[nH]c3=O)C(O)C2O)ccc1-c1c2ccc(=O)cc-2oc2cc(O)ccc12 (stereo not drawn) [Compound 5f, UDP-3,6-dioxa-octanolamine-fluorescein conjugate]
[1]; [5]
  Kd: 0.575 ± 0.016 µM
[1]; UGMmyco, relative to 5d (eight methylene linker)
  fold lower affinity than compound 5d: more than 10 fold
[1]; UGMmyco, relative to UDP
  fold greater affinity than UDP: 20 fold
[2]; [6]
  Kd: 0.767 ± 0.017 µM

## UDP-octanolamine-fluorescein conjugate [Compound 5d]
[1]; [7]
  Kd: 0.054 µM
[1]; [8]
  Kd: 0.054 ± 0.006 µM
[2]; [6]
  Kd: 0.045 ± 0.002 µM

## O=C(O)c1cc(NC(=S)NCCOCCOCCOCCOP(=O)(O)OP(=O)(O)OCC2OC(n3ccc(=O)[nH]c3=O)C(O)C2O)ccc1-c1c2ccc(=O)cc-2oc2cc(O)ccc12 (stereo not drawn) [Compound 5g, UDP-3,6,9-trioxa-undecanolamine-fluorescein conjugate]
[1]; [5]
  Kd: 1.07 ± 0.1 µM
[2]; [6]
  Kd: 1.2 ± 0.14 µM

## O=C(O)c1cc(NC(=S)NCCOP(=O)(O)OP(=O)(O)OCC2OC(n3ccc(=O)[nH]c3=O)C(O)C2O)ccc1-c1c2ccc(=O)cc-2oc2cc(O)ccc12 (stereo not drawn) [Compound 5a, UDP-ethanolamine-fluorescein conjugate]
[1]; [5]
  Kd: > 30 µM
[1]; UGMmyco Kd (μM), Table 1, UDP-fluorescein conjugates by linker length n
  Kd: > 30 µM
[2]; [6]
  Kd: > 30 µM

## UDP-butanolamine-fluorescein conjugate [Compound 5b]
[1]; [7]
  Kd: 2.5 µM
[1]; [8]
  Kd: 2.51 ± 0.28 µM
[2]; [6]
  Kd: 1.94 ± 0.15 µM

## UDP-hexanolamine-fluorescein conjugate [Compound 5c]
[1]; [7]
  Kd: 0.17 µM
[1]; [8]
  Kd: 0.166 ± 0.014 µM
[2]; [6]
  Kd: 0.193 ± 0.011 µM
[3]
  Kd: 160 nM
[4]
  Kd: 100 nM

## Uridine 5′-diphosphooctanolamine, ammonium salt [Compound 4d]
[1]; [8]
  Kd: 32 ± 3.4 µM
[2]; [6]
  Kd: 37.7 ± 1.5 µM

## O=C(O)c1cc(NC(=S)NCCCCCCCCc2ccc(-c3csc(NC(Cc4ccc(Cl)cc4)C(=O)O)n3)cc2)ccc1-c1c2ccc(=O)cc-2oc2cc(O)ccc12 (stereo not drawn) [Compound 11, Aminothiazole-fluorescein conjugate]
[1]; [8]
  Kd: 0.295 ± 0.066 µM
[1]; read-out: Kd / affinity for UGMmyco
  Kd: 0.3 µM
[2]; [9]
  Kd: 0.385 ± 0.035 µM
[2]; Kd / affinity for UGMkleb
  Kd: 0.38 µM

## O=C(O)c1cc(NC(=S)NCCCCCCCCO)ccc1-c1c2ccc(=O)cc-2oc2cc(O)ccc12 [Compound 6, Octanolamine-fluorescein conjugate]
[1]; [8]
  Kd: > 30 µM
[2]; [9]
  Kd: > 30 µM
UGM
  binding of fluorophore alone: no binding was observed

## O=c1ccn([C@@H]2O[C@H](COP(=O)(O)OP(=O)(O)O)[C@@H](O)[C@H]2O)c(=O)[nH]1 [UDP, uridine 5′-diphosphate, reference compound]
[1]; [5]
  Kd: 15.1 ± 1.7 µM
[1]; Kd / affinity for UGMmyco
  Kd: 15 µM
[2]; [6]
  Kd: 26 ± 1.7 µM
[2]; read-out: Kd / affinity for UGMkleb
  Kd: 26 µM

## UDP-decanolamine-fluorescein conjugate [Compound 5e]
[1]; [7]
  Kd: 0.064 µM
[1]; [8]
  Kd: 0.064 ± 0.004 µM
[2]; [6]
  Kd: 0.07 ± 0.002 µM
